{
  "source": "patent US9522942B2",
  "about": "“Analogs of temporin-SHa and uses thereof” (UNIVERSITE PIERRE ET MARIE CURIE (PARIS 6), priority 2009, dated 2016)",
  "key": {"[1]": {"system": "Candida albicans (ATCC 90028)", "settings": "YPD medium, 30° C.", "procedure": "(§5) The minimum inhibitory concentration (MIC) of each peptide was determined by a test of growth inhibition in broth medium. […] The test was performed in a sterile 96-well microtiter plate. A series of increasing concentrations of each peptide (1 to 400 μM) was first prepared in sterile MilliQ water containing 5% dimethyl sulphoxide (DMSO). […] 50 μL of peptide were aliquoted into each well with 50 μL of bacterial suspension (10^5-10^6 cfu/mL). The microtiter plate was then incubated for 18 hrs at 37° C. with shaking. Bacterial growth was determined by measuring OD at 630 nm (turbidity) on a plate reader. Tests were carried out in triplicate for each peptide concentration.\n(§6) These strains were first grown on YPD agar for a minimum of 48 hrs. Yeast suspensions were then prepared, exactly as for bacteria, and adjusted to 10^5-10^6 cfu/mL in YPD broth medium.\n(§7) The antifungal activity test corresponds to the growth inhibition test in broth medium used for the bacteria (see above) in which LB medium was replaced by YPD medium. Fungal strains were incubated at 30° C."}, "Hemolytic test": {"assay": "Hemolytic test", "type": "cell-based", "settings": "erythrocytes (washed red blood cells), pH 7.4; human erythrocytes, 1 hr at 37° C., concentration inducing hemolysis of 50% of the cells; read-out: LC50 erythrocytes", "description": "(§1) The hemolytic activity of the antimicrobial peptides was assessed using human erythrocytes from healthy donors. Red blood cell hemolysis is manifested by the release into the reaction medium of hemoglobin, the concentration of which is determined spectrophotometrically at 450 nm.\n(§2) Red blood cells were separated from plasma and white blood cells by centrifugation of human blood (900 g, 10 min). The pellet containing red blood cells was washed three times with PBS buffer, pH 7.4. After counting on a Malassez cell, a stock solution of 2.10^7 red blood cells/mL was prepared in the same buffer. A series of concentrations of the peptides to be tested was prepared (1 to 200 μM).\n(§3) The test was carried out as follows: 100 μL of the different peptide concentrations were added to 100 μL of the red blood cell suspension. After 1 hr of incubation at 37° C. followed by centrifugation (12,000 g, 15 sec), absorbance of the supernatant was measured at 450 nm. The negative control for this test (0% hemolysis) contained 100 μL of PBS buffer in place of the peptide solution. The positive control (100% hemolysis) contained 100 μL of 0.1% Triton in place of the peptide solution.\n(§4) The LC50 value obtained is the mean of three experiments carried out in triplicate and corresponds to the peptide concentration inducing hemolysis of 50% of the cells."}, "human erythrocytes": {"system": "human erythrocytes", "assay": "Hemolytic test", "type": "cell-based", "settings": "relative to temporin-SHa", "description": "as §1, §2, §3, §4"}, "Bacillus megaterium": {"system": "Bacillus megaterium", "settings": "18 hrs at 37° C., LB medium", "procedure": "(§8) The following strains were used for the antibacterial activity tests: Escherichia coli (ATCC 25922 and ATCC 35218), Staphylococcus aureus (ATCC 25923), Enterococcus faecalis (ATCC 29212), Bacillus megaterium and Pseudomonas aeruginosa (ATCC 27853).\n(§9) For each strain, a standard inoculum of 10^5 to 10^6 bacteria/mL (exponential growth phase) was prepared. To this end, a colony isolated on LB agar previously inoculated with one of the strains was cultured in 10 mL of LB broth medium. Liquid cultures were then incubated for 2 to 3 hrs at 37° C. with shaking for the bacteria to reach exponential growth phase. Each bacterial suspension was diluted in LB medium to an OD630nm of 0.01 which corresponds to a concentration of 10^5-10^6 cfu/mL (cfu: colony forming unit).\n(§10) The minimum inhibitory concentration (MIC) of each peptide was determined by a test of growth inhibition in broth medium. […] The test was performed in a sterile 96-well microtiter plate. A series of increasing concentrations of each peptide (1 to 400 μM) was first prepared in sterile MilliQ water containing 5% dimethyl sulphoxide (DMSO). […] 50 μL of peptide were aliquoted into each well with 50 μL of bacterial suspension (10^5-10^6 cfu/mL). The microtiter plate was then incubated for 18 hrs at 37° C. with shaking. Bacterial growth was determined by measuring OD at 630 nm (turbidity) on a plate reader. […]"}, "[2]": {"system": "Enterococcus faecalis (ATCC 29212)", "settings": "18 hrs at 37° C., LB medium", "procedure": "as §8, §9, §10"}, "[3]": {"system": "Staphylococcus aureus (ATCC 25923)", "settings": "18 hrs at 37° C., LB medium", "procedure": "as §8, §9, §10"}, "[4]": {"system": "Pseudomonas aeruginosa (ATCC 27853)", "assay": "Growth inhibition test in broth medium (MIC)", "type": "cell-based", "settings": "18 hrs at 37° C., LB medium", "procedure": "as §8, §9, §10"}, "[5]": {"target": "Leishmania infantum promastigotes", "type": "cell-based", "settings": "72 hours at 26° C., luciferase luminescence (FIG. 2 B), read-out: IC50, promastigote form", "description": "The antiparasitic activity of the peptides was evaluated on two forms of the parasite Leishmania infantum, the promastigote form and the amastigote form.\nThe tests of anti-Leishmania activity were carried out with a Leishmania infantum cell line αNEO-αLUC This cell line was obtained by transforming Leishmania infantum strain MHOM/MA/67/ITMAP-263 with the vector pGM αNEO-αLUC containing the luciferase reporter gene (LUC) and the neomycin resistance gene (NEO) such as described in Roy et al. (2000). It was maintained in culture in its two forms, promastigote and amastigote.\nLeishmania infantum promastigotes were maintained at 26° C. by one or two weekly passages depending on the number of parasites in the inoculum, in SDM 79 medium supplemented with 10 to 20% decomplemented foetal calf serum and […] porcine haemin and in the presence of 100 U/mL penicillin and 100 μg/mL streptomycin (Brun & Shonenberger, 1979). […] Cell densities were determined by flow cytometry in the presence of propidium iodide on a Facscan cytometer (Excalibur, Becton-Dickinson, Ivry, France).\nEmitted luminescence was measured with a luminescence plate reader (Victor, PerkinElmer). […]\nThe percentage growth was calculated according to the following formula: % growth=[(L mean−bgd)peptide×100]/(L mean−bgd)control […]"}, "Saccharomyces cerevisiae": {"system": "Saccharomyces cerevisiae", "settings": "YPD medium, 30° C.", "procedure": "as §5, §6, §7"}, "[6]": {"system": "Escherichia coli (ATCC 25922)", "settings": "18 hrs at 37° C., LB medium", "procedure": "as §8, §9, §10"}, "[7]": {"system": "Escherichia coli (ATCC 35218)", "settings": "18 hrs at 37° C., LB medium", "procedure": "as §8, §9, §10"}, "Gram-negative strains": {"system": "Gram-negative strains", "settings": "summary in text for all Gram-negative strains tested", "procedure": "as §8, §9, §10"}, "[8]": {"system": "human monocyte cell line THP-1", "settings": "THP-1, 72 hrs, MTT test (FIG. 3), at antimicrobial concentrations", "procedure": "The cytotoxic activity of the antimicrobial peptides was determined on a human monocyte cell line THP-1. Cells were cultured in RPMI medium (10% FCS, 100 U/mL penicillin, 100 μg/mL streptomycin) until reaching exponential growth phase. After counting in a Thoma counting chamber, cell density was adjusted to 6.25×10^5 cells/mL in RPMI 1640 medium. Five-fold concentrated solutions of antimicrobial peptides were prepared in this RPMI medium (300 to 4.7 μM).\nMonocytes were aliquoted at 80 μL of cell suspension per well (corresponding to 5×10^4 monocytes/well or 5×10^5 cells/mL final) and mixed with 20 μL of peptide solution (60 to 0.94 μM final concentration). Negative and positive controls were carried out according to the same protocol as for the tests of anti-Leishmania activity. Experiments were done in triplicate for each peptide concentration. Cells were incubated at 37° C., in a 5% CO2 atmosphere for 72 hrs.\nAfter 72 hours, the number of viable THP-1 cells was calculated indirectly by the MTT test (Mosmann, 1983). […] Blue formazan can be detected spectrophotometrically at 570 nm.\nA 10 mg/mL MTT solution in PBS buffer (pH 7.4), filtered on a 0.45 μm filter, was aliquoted at 10 μL per well. Plates were then incubated for 4 hrs at 37° C. […] The OD at 570 nm of each well was then measured (Victor plate reader, PerkinElmer) to calculate the IC50."}, "[9]": {"system": "Candida parapsilosis (ATCC 22019)", "assay": "Antifungal growth inhibition test in YPD broth (MIC)", "type": "cell-based", "settings": "YPD medium, 30° C.", "description": "Fungal strains were incubated at 30° C."}},
  "note": "Entries after “also recorded” stand apart in the source; their conditions may differ. Ends that are not written are not given here.",
  "data": [
    {"substance": "FLKGIVGMLGKLF-NH2 [[K^3]temporin-SHa]", "values": [
      {"measurement": "MIC", "setting": "[1]", "value": 12.5, "unit": "µM"},
      {"measurement": "HC50 at 1 hr", "setting": "Hemolytic test", "value": 50, "unit": "µM"},
      {"measurement": "Change in hemolytic activity as compared with temporin-SHa", "setting": "human erythrocytes", "value": "twofold decrease; also recorded: twofold reduction"},
      {"measurement": "MIC", "setting": "Bacillus megaterium", "value": 1.5, "unit": "µM"},
      {"measurement": "MIC", "setting": "[2]", "value": 10, "unit": "µM"},
      {"measurement": "MIC", "setting": "[3]", "value": 3, "unit": "µM"},
      {"measurement": "MIC", "setting": "[4]", "value": 3, "unit": "µM"},
      {"measurement": "IC50", "setting": "[5]", "value": "~10", "unit": "µM"},
      {"measurement": "MIC", "setting": "Saccharomyces cerevisiae", "value": 6.25, "unit": "µM"},
      {"measurement": "MIC", "setting": "[6]", "value": 3, "unit": "µM"},
      {"measurement": "MIC", "setting": "[7]", "value": 3, "unit": "µM"},
      {"measurement": "MIC, all Gram-negative strains tested", "setting": "Gram-negative strains", "value": 3, "unit": "µM"},
      {"measurement": "MIC", "setting": "Escherichia coli ML-35p", "value": 3, "unit": "µM"},
      {"measurement": "Cytotoxic effect on monocytes", "setting": "[8]", "value": "not cytotoxic"}
    ]},
    {"substance": "FLSGIVGMLGKLF-NH2 [temporin-SHa, F-L-S-G-I-V-G-M-L-G-K-L-F]", "values": [
      {"measurement": "MIC", "setting": "[1]", "value": 15, "unit": "µM"},
      {"measurement": "HC50 at 1 hr", "setting": "Hemolytic test", "value": 25, "unit": "µM"},
      {"measurement": "MIC", "setting": "Bacillus megaterium", "value": 2.5, "unit": "µM"},
      {"measurement": "MIC", "setting": "[2]", "value": 10, "unit": "µM"},
      {"measurement": "MIC", "setting": "[3]", "value": 3, "unit": "µM"},
      {"measurement": "MIC", "setting": "[4]", "value": 31.25, "unit": "µM"},
      {"measurement": "IC50", "setting": "[5]", "value": "~20", "unit": "µM"},
      {"measurement": "MIC", "setting": "Saccharomyces cerevisiae", "value": 7.9, "unit": "µM"},
      {"measurement": "MIC", "setting": "[6]", "value": 10, "unit": "µM"},
      {"measurement": "MIC", "setting": "[7]", "value": 10, "unit": "µM"},
      {"measurement": "MIC", "setting": "Escherichia coli ML-35p", "value": 6.25, "unit": "µM"},
      {"measurement": "Cytotoxic effect on monocytes", "setting": "[8]", "value": "not cytotoxic"},
      {"measurement": "MIC", "setting": "[9]", "value": 31.25, "unit": "µM"}
    ]}
  ]
}
